Laboratory results as given in the NIST ThermoML archive (doi:10.1016/j.jct.2018.02.022).

Assay: xn = mol fraction of the nth substance listed
Conditions: 92.3 kPa, Liquid; for viscosity: Concentric cylinders viscometry; for speed of sound: Frequency=3 MHz, Single path-length method; for mass density: Vibrating tube method

OCCOCCO [diethylene glycol] + O
Conditions	mass density, 293.15 K [kg/m3]	mass density, 298.15 K [kg/m3]	speed of sound, 293.15 K [m/s]	speed of sound, 298.15 K [m/s]	viscosity, 293.15 K [mPa·s]	viscosity, 298.15 K [mPa·s]
x1 = 0.0097	1006.17	1004.88	1511.2	1523	–	–
x1 = 0.0201	1013.77	1012.33	1539.6	1549.1	–	–
x1 = 0.0297	1020.4	1018.8	1563.6	1571.1	–	–
x1 = 0.0397	1026.98	1025.23	1586.2	1591.7	–	–
x1 = 0.049	1032.59	1030.67	–	–	2.119	1.717
x1 = 0.0502	1033.24	1031.33	1607.7	1611.3	–	–
x1 = 0.0591	1038.24	1036.19	1624	1626.1	–	–
x1 = 0.0703	1044.16	1041.95	1642.5	1643	–	–
x1 = 0.0796	1048.67	1046.34	1655.5	1654.7	–	–
x1 = 0.0897	1053.15	1050.7	1667.9	1665.9	–	–
x1 = 0.0992	1057.14	1054.62	–	–	3.602	2.877
x1 = 0.1004	1057.71	1055.14	1679.7	1676.5	–	–
x1 = 0.149	1074.04	1071.09	–	–	5.458	4.314
x1 = 0.1507	1074.47	1071.48	1713	1705.9	–	–
x1 = 0.1996	1085.68	1082.45	1723.9	1714.7	–	–
x1 = 0.1998	1085.89	1082.66	–	–	7.66	6.022
x1 = 0.2467	1093.59	1090.21	1723	1712.6	–	–
x1 = 0.249	1093.81	1090.4	–	–	10.04	7.847
x1 = 0.2943	1098.86	1095.38	1716.6	1705.5	–	–
x1 = 0.2987	1099.44	1095.93	–	–	12.55	9.772
x1 = 0.3501	1103.6	1100.05	–	–	15.18	11.79
x1 = 0.3511	1103.73	1100.19	1705.1	1693.5	–	–
x1 = 0.3995	1106.65	1103.05	1694	1682.2	–	–
x1 = 0.4007	1106.63	1103.05	–	–	17.72	13.74
x1 = 0.4504	1108.9	1105.32	–	–	20.13	15.59
x1 = 0.4527	1109.08	1105.5	1681.7	1669.8	–	–
x1 = 0.4973	1110.6	1107.02	–	–	22.3	17.24
x1 = 0.5008	1110.76	1107.17	1670.7	1658.7	–	–
x1 = 0.5449	1111.95	1108.36	1661.5	1649.4	–	–
x1 = 0.553	1112.18	1108.61	–	–	24.68	19.07
x1 = 0.5834	1112.81	1109.23	1653.4	1641.4	–	–
x1 = 0.5938	1113.09	1109.52	–	–	26.23	20.23
x1 = 0.6482	1113.95	1110.37	1640.7	1628.7	–	–
x1 = 0.6514	1114.07	1110.49	–	–	28.3	21.86
x1 = 0.6864	1114.52	1110.94	–	–	29.45	22.7
x1 = 0.6982	1114.6	1111.02	1632.2	1620.2	–	–
x1 = 0.7444	1115.11	1111.54	1624.4	1612.5	–	–
x1 = 0.7556	1115.19	1111.61	–	–	31.37	24.17
x1 = 0.7962	1115.57	1112.01	1616.7	1604.8	–	–
x1 = 0.7999	1115.52	1111.95	–	–	32.41	24.94
x1 = 0.8401	1115.89	1112.33	1610.4	1598.5	–	–
x1 = 0.8525	1115.89	1112.33	–	–	33.47	25.8
x1 = 0.8947	1116.23	1112.67	1603.3	1591.5	–	–
x1 = 0.9002	1116.23	1112.68	–	–	34.4	26.49
x1 = 0.9092	1116.32	1112.76	1601.5	1589.6	–	–
x1 = 0.919	1116.37	1112.81	1600.2	1588.4	–	–
x1 = 0.9303	1116.39	1112.85	1599.1	1587.2	–	–
x1 = 0.9393	1116.4	1112.85	1598	1586.2	–	–
x1 = 0.9473	1116.5	1112.94	1597.2	1585.3	–	–
x1 = 0.9554	1116.57	1113.02	–	–	35.26	27.15
x1 = 0.9566	1116.55	1112.99	1596	1584.1	–	–
x1 = 0.9694	1116.6	1113.04	1594.6	1582.7	–	–
x1 = 0.9801	1116.65	1113.09	1593.4	1581.5	–	–
x1 = 0.9915	1116.69	1113.13	1592.1	1580.3	–	–
x1 = 1	1116.73	1113.17	1591	1579.1	35.89	27.67
